Experimental data: US20190008810A1, “METHOD FOR PREVENTION, TREATMENT AND ALLEVIATION OF INFECTIOUS DISEASES AND DISORDERS” (REPLICON HEALTH OY, priority 2016, published 2019)

Assays:
[1] = system: bacterial and/or virus infection of respiratory tract; experiment: Healing from more severe respiratory tract infection in S1, Example 1d; assay type: in vivo, human
Source text: Clear symptoms of bacterial and/or virus infection in S1 had started 7 days earlier. Original cause of the disease can also be acquired earlier, i.e. it can have been some hiding pathogen like tuberculosis bacteria that exploits tempting opportunities to attack the body when its defenses are weakened by some physical and/or mental stress (in this case stress could have been also positive stress from overly active days). […] On Friday, they were in an activity theme park with the family and next day, on Saturday they drove for 2 hours to a birthday party lasting to Sunday morning hours, and finally on Sunday visited museum that required 500 km of extra driving there and back. Next day, i.e. on Monday morning, the initiation of infectious condition was felt very clearly.
On Friday afternoon, fever had risen to 37.40 Celsius that is relatively high fever for S1 whose normal temperature is 36.60 Celsius (C) in rest during the day. Fever remained at 37.40 C until the night. During Saturday, the disease and related fever continued. On Sunday morning, temperature was slightly elevated (36.58 C) compared to the normal morning temperature (36.2-36.4 C). Otherwise the general condition was good on this Sunday morning but during the day fever again rose to 37.15 C by the afternoon and the symptoms in respiratory tract got more severe, resembling intensifying bronchitis or similar inflammatory condition.
By Sunday afternoon it started to seem evident that the immune system of S1 (even assisted by almost perfect rest for 3 days already) would not be able to provide a fast resolution to the potentially serious infectious condition. The Double and the Local Enforcements should be started as soon as possible. (Note: acute fever responses, presented in FIG. 5 and FIG. 11 for S1 have been observed from following administrations of D-glyceric acid in water and calcium salt dehydrate.)
At 12:41 S1 took 2×250 mg of D-glyceric acid calcium salt mixed into water to initiate the DGA Activation. At 0715 pm S1 took 2×180 mg of D-glyceric acid calcium salt mixed into water to keep the DGA Activation alive.

CRP = experiment: Blood CRP in discontinuous MPTP/PD disease model; assay type: in vivo, mice
Method: In this Example, CRP results from 3 separate preclinical tests are presented and analyzed. First 4-day CRP test was conducted with 8 healthy mice using individuals as their own controls. Second 7-day CRP test was conducted in discontinuous disease model. And third also 7-day CRP test was conducted in continuous disease model. CRP present in mouse serum samples were analyzed using mouse CRP ELISA kit (GWB-3B960E, Genway Biotech Inc.). All blood samples were collected at the same time of the day.
In two other CRP tests, the effect of the DGA Activation in two disease models, continuous vs. discontinuous was analyzed. In FIG. 4b, results from discontinuous MPTP/PD disease model, and in FIG. 4c, results from continuous IPA/Dry Eye disease model. Logarithmic change of blood CRP during the 7-day disease follow up period of each mouse in all groups was calculated and the averages are presented in FIGS. 4b and 4c. (In both disease models, there was a 4-day priming with 50% DGA dose before activating the disease model and CRP test.)
Brief description of the disease models: 1) continuous IPA -model (see Example 1a) and 2) discontinuous MPTP/PD -model. MPTP (1-methyl-4-phenyl-1,2,3,6-tetrahydropyridine) is a neurotoxin precursor to MPP+, which causes symptoms of Parkinson's disease (PD). […] Diet consumption per cage is monitored carefully before and during the study follow-up period. […]

cortisol, TSH, T4 = experiment: Blood cortisol, TSH and T4 in healthy human volunteers, Example 5a; assay type: in vivo
Method: Blood levels of cortisol, thyroid stimulating hormone (TSH) and thyroxin, i.e. thyroid hormone T4 (T4) from standard EDTA blood sample were measured. 0-control and 2 day follow up measurement were conducted at approximately 08.55 am and the same day, 1.5 hour follow up, at 10:25 am. All measurements were conducted in “half fasting” state, i.e. half of the normal breakfast eaten 1.5 hours before the collection of the blood sample, and the other “half” immediately after 0-control measurement. First measurement without the DGA Activation served as the 0-control for both follow up measurements with the DGA Activation. First “DGA measurement” was conducted after 1.5 hours from 0-control (“fast effect”) and the second after 2 days (“persistent effect”). […] Last dose was 300 mg of D-glyceric acid mixed into water (or 430 mg of D-glyceric acid calcium salt dehydrate mixed into water), and otherwise the daily dose was 2*225 mg D-glyceric acid calcium salt dehydrate mixed into water. Male volunteers S1 and S9 weigh 75 kg and 80 kg respectfully.

With `O=C(O)[C@H](O)CO` [DGA, D-glyceric acid] the “body temperature, highest during workday” value ([1]; S1, Monday) was 36.87 C, the body temperature ([1]; S1, Monday 0630 am) was 36.38 C and the body temperature ([1]; S1, Monday 0900 pm) was 36.71 C. For the same molecule, the body temperature ([1]; S1, Monday 1036 pm) was 36.68 C, the body temperature ([1]; S1, Sunday 07:10 pm, before second dose) was 36.60 C and the body temperature ([1]; S1, Sunday 0648 pm after 2×250 mg at 12:41, 37.15 C before) was 36.58 C. The body temperature ([1]; S1, Sunday 0652 pm) was 36.52 C, the body temperature ([1]; S1, Sunday 1015 pm) was 36.60 C and the body temperature ([1]; S1, Sunday 1035 pm) was 36.61 C. The “survival and health parameters” value (CRP; 4+7-day administration) was “improved survival and health parameters”, the “blood CRP change vs 0-control” value (CRP; 7-day follow up after 4-day priming, p-value=0.015, pairwise p-value=0005) was “declined statistically significantly” and the “TSH decline, fast effect” value (cortisol, TSH, T4; 1.5 hours) was −24%. For the same molecule, the “decline of blood cortisol, fast effect” value (cortisol, TSH, T4; 1.5 hours after dose, both S1 and S9) was “more than 22%”, the “T4, average change from 0-control” value (cortisol, TSH, T4; S1 and S9) was “less than 1%” and the “decrease in blood cortisol” value (cortisol, TSH, T4; S1 and S9) was 20-40%. The TSH decline (cortisol, TSH, T4; after 2 days) was −13%.
